# Assay: Diffusive release of Rose Bengal through sintered electrospun polymer capsule wall in PBS
# Format: physicochemical
# Excerpt: To create a generic advantage that dramatically enhances the long-term drug delivery properties of electrospun scaffolds beyond those currently available via electrospinning alone. A little-known aspect of materials processing is that the shrinkage of high surface area polymers (e.g., in electrospun or electrosprayed form) can be used to provide higher density polymers. In the context of electrospun tissue engineering scaffolds, this phenomenon can be used to create relatively dense material from polymer compositions that would be difficult—if not impossible—to create via extrusion. The relatively dense material then creates a solid barrier through which diffusion of the internally-held drug can occur. The simplest version of this process involves creating a hollow tube via electrospinning (FIG. 1), sintering it to full or nearly-full density (thus eliminating open porosity, see FIG. 2), and then inserting the drug of interest contained with the appropriate solvent. Once this is complete, the ends of the tube can be heat-sealed (FIG. 3) using commonly available, purpose-built equipment designed and manufactured for the purpose of heat-sealing plastics of nearly any chemical composition. […]
smiles,measurement,setting,value
O=C([O-])c1c(Cl)c(Cl)c(Cl)c(Cl)c1-c1c2cc(I)c(=O)c(I)c-2oc2c(I)c([O-])c(I)cc12.[Na+].[Na+] [Rose Bengal],drug release rate of Rose Bengal through 95% PCL-5% PET wall,"95% PCL-5% polyethylene terephthalate wall formed by electrospinning then sintering to full density, after 30+ days of release (FIG. 5)",above 10 μg/day
same,release rate of Rose Bengal through PCL capsule wall,"PCL wall formed by electrospinning then sintering to full density, after 120 days of exposure to 37° C. phosphate-buffered saline (FIG. 4)",9 to 10 µg/day
